Experimental data: patent publication US8802597B2, “Herbicidal pyrimidines” (E I du Pont de Nemours and Company, priority 2003, dated 2014)

Key:
Test in all cases: Test C pre/postemergence
Assay type in all cases: in vivo
[1] = tested on: lambsquarters (Chenopodium album); conditions: for Lambsquarters plant response rating: scale 0 to 100 (0 no effect, 100 complete control)
Outline: (§1)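 Injury scored visually 12–14 days after application on 0–100 scale (100 = complete control), relative to controls. Compounds, formulated with surfactant in non-phytotoxic solvent, applied to soil at planting (pre) or to 1- to 4-leaf plants 2–18 cm tall (post) in greenhouse.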

[2] = tested on: common ragweed (Ambrosia elatior); conditions: for Ragweed plant response rating: scale 0 to 100 (0 no effect, 100 complete control)
Outline: as §1

[3] = tested on: pigweed (Amaranthus retroflexus); conditions: for Pigweed plant response rating: scale 0 to 100 (0 no effect, 100 complete control)
Outline: as §1

[4] = tested on: goosegrass (Eleusine indica); conditions: for Goosegrass plant response rating: scale 0 to 100 (0 no effect, 100 complete control)
Outline: as §1

[5] = tested on: cocklebur (Xanthium strumarium); conditions: for Cocklebur plant response rating: scale 0 to 100 (0 no effect, 100 complete control)
Outline: as §1

[6] = tested on: johnsongrass (Sorghum halepense); conditions: for Johnsongrass plant response rating: scale 0 to 100 (0 no effect, 100 complete control)
Outline: as §1

soybean (Glycine max) = conditions: for Soybean plant response rating: scale 0 to 100 (0 no effect, 100 complete control)
Outline: as §1

[7] = tested on: common (oilseed) sunflower (Helianthus annuus); conditions: Preemergence
Outline: as §1

[8] = tested on: eastern black nightshade (Solanum ptycanthum); conditions: Preemergence
Outline: as §1

[9] = tested on: velvetleaf (Abutilon theophrasti); conditions: for Velvetleaf plant response rating: scale 0 to 100 (0 no effect, 100 complete control)
Outline: as §1

kochia (Kochia scoparia) = conditions: for Kochia plant response rating: scale 0 to 100 (0 no effect, 100 complete control)
Outline: as §1

[10] = tested on: bermudagrass (Cynodon dactylon)
Outline: as §1

[11] = Postemergence, 250 g ai/ha, scale 0 to 100
[12] = Preemergence, 31 g ai/ha, scale 0 to 100, 0 no effect, 100 complete control
[13] = Preemergence, 62 g ai/ha, scale 0 to 100, 0 no effect, 100 complete control
[14] = Preemergence, 125 g ai/ha, scale 0 to 100
[15] = Preemergence, 250 g ai/ha, scale 0 to 100
[16] = 62 g ai/ha, scale 0 to 100, 0 no effect, 100 complete control

CC(C)COC(=O)c1nc(C2CC2)nc(N)c1Br [Compound 17]
Plant response rating (scale of 0 to 100), Lambsquarters ([1]; Postemergence, 31 g ai/ha): 95 | Lambsquarters plant response rating ([1]; Postemergence, 62 g ai/ha): 100 | Lambsquarters plant response rating ([1]; Postemergence, 125 g ai/ha): 100 | Plant response rating, Lambsquarters [1, 11]: 100 | Plant response rating, Lambsquarters [1, 12]: 95 | Plant response rating, Lambsquarters [1, 13]: 95 | Plant response rating, Lambsquarters [1, 14]: 100 | Plant response rating, Lambsquarters [1, 15]: 100 | Plant response rating (scale of 0 to 100), Ragweed ([2]; Postemergence, 31 g ai/ha): 65 | Ragweed plant response rating ([2]; Postemergence, 62 g ai/ha): 85 | Ragweed plant response rating ([2]; Postemergence, 125 g ai/ha): 95 | Plant response rating, Ragweed [2, 11]: 95 | Plant response rating, Ragweed [2, 12]: 70 | Plant response rating, Ragweed [2, 13]: 80 | Plant response rating, Ragweed [2, 14]: 95 | Plant response rating, Ragweed [2, 15]: 100 | Plant response rating (scale of 0 to 100), Pigweed ([3]; Postemergence, 31 g ai/ha): 45 | Pigweed plant response rating ([3]; Postemergence, 62 g ai/ha): 65 | Pigweed plant response rating ([3]; Postemergence, 125 g ai/ha): 75 | Plant response rating, Pigweed [3, 11]: 95 | Plant response rating, Pigweed [3, 12]: 95 | Plant response rating, Pigweed [3, 13]: 100 | Plant response rating, Pigweed [3, 14]: 100 | Plant response rating, Pigweed [3, 15]: 100 | Plant response rating (scale of 0 to 100), Goosegrass ([4]; Postemergence, 31 g ai/ha): 0 | Goosegrass plant response rating ([4]; Postemergence, 62 g ai/ha): 0 | Goosegrass plant response rating ([4]; Postemergence, 125 g ai/ha): 0 | Plant response rating, Goosegrass [4, 11]: 0 | Plant response rating, Goosegrass [4, 12]: 0 | Plant response rating, Goosegrass [4, 13]: 0 | Plant response rating, Goosegrass [4, 14]: 0 | Plant response rating, Goosegrass [4, 15]: 0 | Plant response rating (scale of 0 to 100), Cocklebur ([5]; Postemergence, 31 g ai/ha): 95 | Cocklebur plant response rating ([5]; Postemergence, 62 g ai/ha): 100 | Cocklebur plant response rating ([5]; Postemergence, 125 g ai/ha): 100 | Plant response rating, Cocklebur [5, 11]: 100 | Plant response rating, Cocklebur [5, 12]: 75 | Plant response rating, Cocklebur [5, 13]: 90 | Plant response rating, Cocklebur [5, 14]: 95 | Plant response rating, Cocklebur [5, 15]: 100 | Plant response rating (scale of 0 to 100), Johnsongrass ([6]; Postemergence, 31 g ai/ha): 0 | Johnsongrass plant response rating ([6]; Postemergence, 62 g ai/ha): 0 | Johnsongrass plant response rating ([6]; Postemergence, 125 g ai/ha): 40 | Plant response rating, Johnsongrass [6, 11]: 60 | Plant response rating, Johnsongrass [6, 12]: 0 | Plant response rating, Johnsongrass [6, 13]: 0 | Plant response rating, Johnsongrass [6, 14]: 55 | Plant response rating, Johnsongrass [6, 15]: 75 | Plant response rating (scale of 0 to 100), Soybean (soybean (Glycine max); Postemergence, 31 g ai/ha): 85 | Soybean plant response rating (soybean (Glycine max); Postemergence, 62 g ai/ha): 95 | Soybean plant response rating (soybean (Glycine max); Postemergence, 125 g ai/ha): 100 | Plant response rating, Soybean (soybean (Glycine max); [11]): 100 | Plant response rating, Soybean (soybean (Glycine max); [12]): 70 | Plant response rating, Soybean (soybean (Glycine max); [13]): 90 | Plant response rating, Soybean (soybean (Glycine max); [14]): 95 | Plant response rating, Soybean (soybean (Glycine max); [15]): 100 | Plant response rating, Sunflower ([7]; 31 g ai/ha, scale 0 to 100, 0 no effect, 100 complete control): 60 | Plant response rating, Sunflower [7, 16]: 95 | Plant response rating, Sunflower ([7]; 125 g ai/ha, scale 0 to 100): 100 | Plant response rating, Sunflower ([7]; 250 g ai/ha, scale 0 to 100): 100 | Plant response rating, Nightshade [8, 16]: 80 | Plant response rating, Nightshade ([8]; 125 g ai/ha, scale 0 to 100): 95 | Plant response rating, Nightshade ([8]; 250 g ai/ha, scale 0 to 100): 100 | Plant response rating (scale of 0 to 100), Velvetleaf ([9]; Postemergence, 31 g ai/ha): 25 | Velvetleaf plant response rating ([9]; Postemergence, 62 g ai/ha): 50 | Velvetleaf plant response rating ([9]; Postemergence, 125 g ai/ha): 80 | Plant response rating, Velvetleaf [9, 11]: 95 | Plant response rating, Velvetleaf [9, 12]: 20 | Plant response rating, Velvetleaf [9, 13]: 80 | Plant response rating, Velvetleaf [9, 14]: 100 | Plant response rating, Velvetleaf [9, 15]: 100 | Plant response rating (scale of 0 to 100), Kochia (kochia (Kochia scoparia); Postemergence, 31 g ai/ha): 100 | Kochia plant response rating (kochia (Kochia scoparia); Postemergence, 62 g ai/ha): 100 | Kochia plant response rating (kochia (Kochia scoparia); Postemergence, 125 g ai/ha): 100 | Plant response rating, Kochia (kochia (Kochia scoparia); [11]): 100 | Plant response rating, Kochia (kochia (Kochia scoparia); [12]): 0 | Plant response rating, Kochia (kochia (Kochia scoparia); [13]): 0 | Plant response rating, Kochia (kochia (Kochia scoparia); [14]): 25 | Plant response rating, Kochia (kochia (Kochia scoparia); [15]): 85 | Plant response rating (scale of 0 to 100), Bermudagrass ([10]; Postemergence, 31 g ai/ha): 0 | Bermudagrass plant response rating ([10]; Postemergence, 62 g ai/ha, scale 0 to 100 (0 no effect, 100 complete control)): 0 | Plant response rating, Bermudagrass [10, 11]: 0 | Plant response rating, Bermudagrass ([10]; Postemergence, 125 g ai/ha, scale 0 to 100): 0 | Plant response rating, Bermudagrass [10, 12]: 0 | Plant response rating, Bermudagrass [10, 13]: 0 | Plant response rating, Bermudagrass [10, 14]: 0 | Plant response rating, Bermudagrass [10, 15]: 0
